In publication PMC12406204 (Journal of Medicinal Chemistry, 2025):

Columns and labels:
[1] = Cytotoxicity on THP1 monocytes and macrophages; format: cell-based; settings: human, 100 nM, basal and LPS-stimulated conditions, read-out: cell viability (cytotoxicity)
From the text: These findings collectively highlight the anti-inflammatory properties of the selected CB2R agonists. […] The cytokine modulation profiles observed (Figure ) support the hypothesis that these ligands promote a shift toward an anti-inflammatory immune response, reducing the detrimental effects of chronic inflammation. This makes them promising candidates for the development of new therapies addressing severe inflammatory conditions, such as systemic infections, sepsis, neuroinflammation, and certain types of cancer or scenarios where conventional anti-inflammatory treatments are insufficient. Moreover, the selective targeting of CB2R without activating CB1R ensures a favorable safety profile, minimizing the risk of psychoactive side effects, and positioning these ligands as promising candidates for neurodegenerative and oncological therapies. To ensure the safety and viability of our tested compounds, we evaluated their cytotoxic effects on monocytes and macrophages under the same conditions as those used for assessing anti-inflammatory activity (Figure ). Each compound was tested at a concentration of 100 nM.
Supplementary Figure S5. Cytotoxicity assessment of lead compounds (16i, 16j, 18e, 18f, 18o, and 18p) on THP1 monocytes and macrophages (n = 3). Cells were treated with each compound at 100 nM under both basal and LPS - stimulated conditions. The viability was compared to controls, including HU308 and SR144528. […]
cytotoxic effects, with cell viability remaining close to 100% across all conditions. Error bars represent standard deviation.
(1 picture or pasted object on this page, not shown here)

CB2R [2] = target: T1, CB2R (Homo sapiens, UniProt P34972); experiment: CB2R cAMP determination after forskolin stimulation in transfected HEK-293T cells; format: cell-based; parameters: expressed in transfected cells; host or cells: HEK-293T, transient transfection (PEI); settings: for Emax: HEK-293T, normalized to maximal efficacious concentration of CP 55,940, read-out: CB2R Emax AMPc (converted); for EC50: transfected HEK-293T cells, forskolin-stimulated cAMP, read-out: CB2R EC50 AMPc
T1 sequence (P34972 whole entry): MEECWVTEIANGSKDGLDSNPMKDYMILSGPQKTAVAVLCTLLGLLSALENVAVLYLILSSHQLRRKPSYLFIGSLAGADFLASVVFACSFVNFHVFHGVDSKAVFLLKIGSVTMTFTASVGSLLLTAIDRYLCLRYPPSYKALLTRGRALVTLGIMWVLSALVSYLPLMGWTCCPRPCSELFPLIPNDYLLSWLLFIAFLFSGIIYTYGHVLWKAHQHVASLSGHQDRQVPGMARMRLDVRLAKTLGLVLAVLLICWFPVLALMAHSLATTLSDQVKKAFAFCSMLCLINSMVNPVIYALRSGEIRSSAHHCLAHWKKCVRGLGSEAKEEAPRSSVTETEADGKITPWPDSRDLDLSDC
Method: (§1) Initially we tested their ability to modify CB2R-mediated cAMP accumulation, providing insights into their functional behavior as either agonists or antagonists (Table ). Moreover, the signaling profiles of selected ligands were investigated through their impact on β-arrestin recruitment and Mitogen-Activated Protein Kinase (MAPK) phosphorylation pathway, enabling a more comprehensive evaluation of their intracellular signaling profiles (Table ).
HEK-293T cells were grown in Dulbecco’s Modified Eagle’s Medium (DMEM) medium (Gibco, Paisley, Scotland, United Kingdom) supplemented with 2 mM L-glutamine, 100 U/mL penicillin/streptomycin, MEM Non-Essential Amino Acids Solution (1/100) and 5% (v/v) heat inactivated Fetal Bovine Serum (FBS) (Invitrogen, Paisley, Scotland, United Kingdom). Cells were maintained in a humid atmosphere of 5% CO2 at 37 °C. Cells were transiently transfected with the PEI (Polyethylenimine, Sigma, St. Louis, MO, United States) method as previously described and used for functional assays 48 h later.
Signaling experiments have been performed as previously described. Two hours before initiating the experiment, HEK-293T cell-culture medium was replaced by serum-starved DMEM medium. Then, cells were detached, resuspended in growing medium containing […] zardaverine (Tocris, Bristol, U.K.) and placed in 384-well microplates (2500 cells/well). Cells were pretreated (15 min) with cannabinoid compounds (1 nM to 100 μM) -or vehicle- before adding […] forskolin (Tocris, Bristol, U.K.) to induce cAMP accumulation. Readings were performed after 15 min incubation at 25 °C. Homogeneous Time Resolved Fluorescence (HTRF) energy transfer measures were performed using the Lance Ultra cAMP kit (PerkinElmer, Waltham, MA, United States). Fluorescence at 665 nm was analyzed in a PHERA star Flagship microplate reader equipped with an HTRF optical module (BMG Lab Technologies, Offenburg, Germany).

CB2R [3] = target: T1, CB2R; experiment: CB2R MAPK phosphorylation; format: cell-based; parameters: expressed in transfected cells; host or cells: HEK-293T, transient transfection (PEI); settings: for Emax: normalized to CP 55,940
From the text: as §1
JWH-133, a well-known nonbiased (balanced) agonist, was employed as the reference for comparing the signaling profiles of the tested compounds. An operational model analysis was applied to quantify the functional bias of each CB2R-selective agonist. This involved calculating the bias factor by comparing the signaling pathways: β-arrestin versus cAMP, MAPK versus cAMP, and β-arrestin versus MAPK.

CB2R [4] = target: T1, CB2R; experiment: CB2R radioligand binding competition ([3H]CP55,940); parameters: expressed in transfected cells; host or cells: HEK-293T (HEK-CB2 cell line); settings: for Ki: displacement of [3H]CP 55,940, membranes of HEK-293T cells, n = 3; for SI Ki CB1R/Ki CB2R: selectivity index, affinity ratio
mouse primary neurons = experiment: Viability of primary neuronal cultures, basal conditions (trypan blue); format: cell-based; settings: 100 nM, 24 h
Method: A mouse primary cell experiment was performed to examine the neuroprotective effects of CB2R agonists selected for in-depth study (16i, 16j, 18e, 18f, 18o, and 18p). First, to exclude any intrinsic toxicity of the selected candidates, their potential effects on primary cell cultures were assessed. […] This finding is particularly noteworthy, and not self-evident, given the significant neurotoxicity observed during our earlier study with structurally related, classical abused [CB1R/CB2R promiscuous] synthetic cannabinoids (SCRAs). For comparative purposes, Figure A also depicts cell viability data obtained for some abused SCRAs (Figure A, gray bars) under identical conditions.
To prepare primary neurons, brains from fetuses of pregnant CD1 mice were removed (gestational age: 19 days). Neurons were isolated as described in Hradsky et al. Briefly, after removal of the meninges, samples were dissected and digested with 0.25% trypsin (20 min at 37 °C). The effect of trypsin was stopped by adding an equal volume of culture medium (supplemented DMEM). A single-cell suspension was obtained by repeated pipetting followed by passage through a 100 μm-pore mesh. Pelleted (7 min, 200g) cells were resuspended in 2 mL of supplemented DMEM and seeded at a density of 3.5 × 10^5 cells/mL in 6-well plates. After 24 h, the medium was replaced by neurobasal medium supplemented with 2 mM L-glutamine, 100 U/mL penicillin/streptomycin and 2% (v/v) B27 medium (GIBCO, Waltham, MA, USA). Primary neurons were assayed after 14 days in culture. Using NeuN as a marker, the percentage of neurons in the culture was >90%.
Primary cultures of striatal neurons were treated for 24 h with selected SCRAs (100 nM). Afterward, cells were scrapped from the plate and resuspended in neurobasal medium supplemented with 2 mM L-glutamine, 100 U/mL penicillin/streptomycin and 2% (v/v) B27 (GIBCO). Trypan blue staining was performed mixing 1 part of 0.4% trypan blue and 1 part of cell suspension in a plastic tube. After ∼3 min of incubation at room temperature, 10 μL of the mixture were sampled in a Neubauer chamber and counted with a Countess II FL (Life Technologies, California, CA, USA). The unstained (viable) and stained (nonviable) cells were counted separately, and the percentage of viability was calculated as total number of viable cells/total number of cells × 100.

SMILES	viability at 0.1 µM [1] [%]	Emax (CB2R [2]) [%]	EC50 (CB2R [2]) [nM]	EC50 (CB2R [3]) [nM]	Emax (CB2R [3]) [%]	Ki (CB2R [4]) [nM]	SI Ki CB1R/Ki CB2R (CB2R [4])	primary cell survival (mouse primary neurons)
NC(=O)[C@@H]1CCCCN1C(=O)c1cn(CC2CCCCC2)c2ccccc12 [18e]	~100	82	1701 ± 12	0.09 ± 0.002	74	30.2 ± 1.2	>100	did not affect primary cell survival
NC(=O)[C@H]1CCCCN1C(=O)c1cn(CC2CCCCC2)c2ccccc12 [18f]	~100	55	118 ± 4	0.07 ± 0.007	94	96.8 ± 2.6	>100	did not affect primary cell survival
CCCCCn1nc(C(=O)N2CCCC[C@@H]2C(=O)OC)c2ccccc21 [16j]	~100	53	0.09 ± 0.01	0.09 ± 0.003	89	89.1 ± 3.1	>100	did not affect primary cell survival
CCCCCn1nc(C(=O)N2CCCC[C@H]2C(=O)OC)c2ccccc21 [16i]	~100	64	0.03 ± 0.01	0.38 ± 0.09	88	10.9 ± 0.5	62	did not affect primary cell survival
NC(=O)[C@@H]1CCCCN1C(=O)c1nn(Cc2ccc(F)cc2)c2ccccc12 [18o]	~100	60	0.6 ± 0.09	0.03 ± 0.003	68	54.6 ± 1.1	>100	did not affect primary cell survival
NC(=O)[C@H]1CCCCN1C(=O)c1nn(Cc2ccc(F)cc2)c2ccccc12 [18p]	~100	58	6.8 ± 0.3	0.4 ± 0.02	79	120 ± 5	>100	did not affect primary cell survival
